These results are taken from patent US9725430B2, “Use of small molecule inhibitors targeting EYA tyrosine phosphatase” (Children's Hospital Medical Center, priority 2013, dated 2017).

Data set [1] relates to HUVECs. Kind of data set: HUVEC proliferation (MTT). In kind it is cell-based, human. Conditions: 5 μM, 24 hours.
Data set [2] relates to HUVECs. Kind of data set: HUVEC tubulogenesis on Matrigel. It counts as cell-based, human. To be noted: for tube formation on Matrigel: HUVEC. The text has this:
Primary endothelial cells (ECs) on basement membrane rapidly attach, align themselves and form capillary-like tubules with lumens and tight cell-cell contacts. […] To better understand the stage in matrigel tube-formation affected by compound 1g cells plated on growth-factor reduced matrigel and treated with either vehicle or compound 1g were followed. Differences become apparent within the first two hours and were clearly visible at the 6-hour time-point. The ECs are much less organized in the presence of compound 1g. […] The effect of compound 1g on tube formation was attenuated in the presence of high concentrations of fetal bovine serum (FBS), likely reflecting non-specific protein binding.
The EYA inhibitors were also tested in tubulogenesis assays. The tubulogenesis assays were performed in 15-well micro-slide (ibidi LLC, Verona Wis.), using growth factor-reduced matrigel (BD Bioscience, Billerica, Mass.). The matrix was prepared by loading 10 μl of matrigel in each micro-slide well and allowing it to solidify for 30 minutes at 37° C. HUVECs were trypsinized and resuspended at 100.000 cell/ml in EBM+2.5% FBS. 50 μl (5,000 cell) were loaded on top of the solidified matrigel and the preparation was incubated for 20 hours at 37° C. in a humidified incubator in a 5% CO2 atmosphere. Bright field images were taken using an inverted microscope at 2.5× magnification, which allowed imaging of the whole well in two pictures that were later merged in Photoshop. Tubular structures were traced and counted using NeuroJ (NIH, USA). In experiments with inhibitor, the inhibitor was added to the cell suspension before loading. Each sample was loaded in triplicate, and each treatment was repeated for reproducibility.

Data set [3] concerns HUVECs. The data set is described as follows: HUVEC transwell migration. In kind it is cell-based, human. Conditions: 5 μM. An excerpt: In order to determine whether EYA3 knock down would affect cell migration, a modified Boyden chamber assay was used to measure HUVEC migration. Briefly, human umbilical vein endothelial cells (HUVECs) were purchased from Lonza (Walkersville, Md.) and maintained in the endothelial cell growth medium (PromoCell, Hleidelberg, Germany), under a 5% CO2 atmosphere. MCF10A cells from ATCC were stably transfected with either pcDNA 3.2N5-DEST (vector control), V5-EYA2 or V5-EYA2(D250N). Transwell migration experiments were performed as previously described (Pandey, R. N. et al. Oncogene 29, 3715-3722, (2010)).

The test system of data set [4] is developing zebrafish vasculature. The data set is described as follows: Zebrafish model of angiogenesis. It counts as in vivo. Conditions: exposure from 5.25 hpf, analysis at 24 hpf; compound 1 at 0.25 μM. The method, then:
Embryos (FLK1-GFP trangenic) were maintained in fish water until the 50% epiboly stage (5.25 hpf) and were transferred into wells of 24-well plate containing the inhibitors in fish water. The analysis for vascular defects was performed after the 24 hpf stage, and embryos were imaged using a fluorescence microscope.
Transgenic fish expressing EGFP in endothelial cells (Tg(flk1:EGFP)) were used to facilitate visualization of the developing vasculature. In control experiments embryos were treated with 0.1% DMSO (vehicle). At the time of analyses (24 hpf) developing vessels normally migrated from the lateral plate mesoderm to the midline and formed the vascular cord, subsequently forming the dorsal aorta and the posterior cardinal vein and followed by the formation of intersegmental vessels at designated branch points (FIG. 6b).

The next data set concerns retinal vasculature. Kind of data set: Mouse model of oxygen-induced retinopathy. In kind it is in vivo, mice. To be noted: 100 or 50 pmoles injected at P12, analyzed at P16. An excerpt:
The mouse model of oxygen-induced retinopathy mimics the retinopathy characteristic of proliferative retiopathy conditions such as retinopathy of prematurity and diabetic retinopathy. […] The resulting retinal hypoxia after day 12, when pups were brought back to 20% O2, induced excessive hypoxia-driven angiogenesis. A characteristic large avascular area at the center of the retina and excessive regrowth of superficial vessels (pre-retinal neovascular tufts) in the mid-peripheral region was observed. […] In contrast, inhibition of either Vegf or Vegfr2 in OIR experiments suppresses both neovascular tuft formation and revascularization.

In the next data set the target is Eya3(ED) (Mus musculus (Mouse), UniProt P97480). Kind of data set: p-nitrophenylphosphate (pNPP) assay, catalytic domain of Eya3. Conditions: pNPP substrate. In kind it is biochemical. The text has this: The catalytic domain of mouse Eya3 (“ED”, comprising residues 223-510 of Eya3) was purified as described by Rayapureddi, J. P. et al. (FEBS Lett 580, 3853-3859 (2006), incorporated by reference in its entirety). For full-length Eya3 (“hEYA3”), human Eya3 isoform 2 (representing the major species identified in human cell lines by mass spectrometry, expressed as residues 127-573 of NM_001990, isoform 1) was sub-cloned into pDEST565 to express a poly-histidine-Glutathione-S-transferase (His-GST) tagged fusion protein with a TVMV protease site. The protein was purified by glutathione-S-transferase affinity chromatography followed by TVMV cleavage, Ni-NTA chromatography, and finally size exclusion chromatography.
An inhibitory assay was conducted using the previously described p-nitrophenylphosphate assay (Rayapureddi, J. P. et al. Nature 426, 295-298 (2003)). Briefly, ED was incubated in a reaction mixture containing 20 mM MES pH 6, 2 mM MgCl2, 125 μM inhibitor, 3.4 mM para-nitrophenol phosphate (pNPP) and 0.01 μg/μL enzyme.
The compounds were then tested using full-length human recombinant, purified EYA3 and pNPP as a substrate. Compounds were dissolved in DMSO and diluted as needed. […] Reactions were incubated at 30° C. for 30 minutes and quenched with 100 mM EDTA pH 10. IC50 values were then calculated directly from regression curves using PRISM software. […]

Data set [5] concerns A673 (Ewings sarcoma) cells. The data set is described as follows: Mouse xenograft model of Ewings sarcoma. It counts as in vivo, nude mice. Conditions: intra-peritoneal 25 mg/kg/day or intra-tumor. On the procedure: The affect of EYA inhibitors on a mouse xenograft model of Ewings sarcoma was tested. 5×10^6 A673 (Ewings sarcoma) cells in 0.1 ml sterile matrigel were injected subcutaneously into the dorsal flank region of nude mice. Approximately 5 days after injection, the tumors were about 100-300 mm^3. […] The dose for intra-peritoneal injections was 25 mg/kg/day. The tumor size was monitored every other day. Animals were sacrificed after 2 weeks, or when tumor volume approached 10% of animal weight.

A further data set deals with EYA3-SIX2 interaction (Homo sapiens (Human), UniProt Q99504). The data set is described as follows: His-SIX2 pull-down of EYA3 on Ni-NTA. It counts as binding. To be noted: 50 μM compound, 15 minutes. The text has this:
Each point represents the mean and standard deviation of two independent readings. (C) Plots of Vmax and Km as a function of inhibitor concentration. […] The mixture was loaded on a Ni-NTA column. Beads were washed with 3 column volumes of load buffer (last washes, lanes 2 and 6). Proteins retained on the beads are shown in lanes 3 and 7. Lanes 4 and 8 are molecular weight markers.
One function of the catalytic domain of the EYAs is to mediate its interaction with the SIX proteins. This complex then translocates to the nucleus where the SIX-EYA complex can activate transcription.

Molecules are shown by their SMILES.

Sequence of Eya3(ED) (P97480 223-510): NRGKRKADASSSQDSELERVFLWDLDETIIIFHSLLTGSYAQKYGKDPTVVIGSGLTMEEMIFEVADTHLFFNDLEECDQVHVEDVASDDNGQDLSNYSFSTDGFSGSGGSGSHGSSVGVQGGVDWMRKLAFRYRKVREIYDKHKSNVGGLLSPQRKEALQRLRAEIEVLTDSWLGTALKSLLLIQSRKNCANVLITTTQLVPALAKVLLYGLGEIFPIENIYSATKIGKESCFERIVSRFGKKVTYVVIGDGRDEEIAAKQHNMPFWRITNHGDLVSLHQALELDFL
Sequence of EYA3-SIX2 interaction (Q99504 whole entry, looked up): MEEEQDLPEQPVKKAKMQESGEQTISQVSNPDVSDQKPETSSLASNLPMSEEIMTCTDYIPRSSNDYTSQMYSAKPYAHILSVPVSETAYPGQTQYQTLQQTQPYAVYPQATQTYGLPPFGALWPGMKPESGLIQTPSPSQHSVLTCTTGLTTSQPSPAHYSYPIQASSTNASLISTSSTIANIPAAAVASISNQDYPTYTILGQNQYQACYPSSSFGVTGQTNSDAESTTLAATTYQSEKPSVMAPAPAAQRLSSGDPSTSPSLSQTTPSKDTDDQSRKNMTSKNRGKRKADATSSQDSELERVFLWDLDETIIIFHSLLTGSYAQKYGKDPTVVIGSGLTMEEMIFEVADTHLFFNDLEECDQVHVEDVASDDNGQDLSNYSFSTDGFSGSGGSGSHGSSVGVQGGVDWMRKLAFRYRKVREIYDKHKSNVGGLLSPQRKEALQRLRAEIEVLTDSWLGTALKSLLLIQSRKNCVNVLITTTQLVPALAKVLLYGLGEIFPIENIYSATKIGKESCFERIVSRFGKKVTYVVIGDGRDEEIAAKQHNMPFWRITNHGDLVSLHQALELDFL
Sequence of EYA3-SIX2 interaction (Q9NPC8 whole entry partner, looked up): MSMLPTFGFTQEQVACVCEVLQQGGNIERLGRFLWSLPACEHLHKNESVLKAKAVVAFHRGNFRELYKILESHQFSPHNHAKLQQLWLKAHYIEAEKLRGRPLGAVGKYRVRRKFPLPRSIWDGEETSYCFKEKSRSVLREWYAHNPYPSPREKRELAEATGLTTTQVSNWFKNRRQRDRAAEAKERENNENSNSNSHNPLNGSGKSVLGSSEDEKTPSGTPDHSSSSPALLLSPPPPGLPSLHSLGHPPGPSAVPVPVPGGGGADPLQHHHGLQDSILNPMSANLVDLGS

Usually IC50 stands for the midpoint of a concentration-inhibition curve. Low readings indicate inhibition by little substance, high ones a need for much substance. `CCc1oc2ccccc2c1C(=O)c1ccc(O)cc1` [Compound 1a]: the HUVEC cell proliferation result in the data set with HUVECs [1] is “no effect on cell proliferation”. Further, the “tube formation on Matrigel” value in the data set with HUVECs [2] was “inhibit EYA3 protein in cell migration and tubulogenesis”. Moreover, the HUVEC cell motility result with HUVECs [3] is “attenuated HUVEC cell motility”. Moreover, the “intersegmental vessels in zebrafish embryos” value in data set [4] was “reduced the number of intersegmental vessels, but were less potent”. For the same molecule, the “formation of neovascular tufts” value in the data set with retinal vasculature is “Significant reduction in the formation of neovascular tufts”. Also, the IC50 at Eya3(ED) stood at 19.2 µM.
Consider `CCc1oc2ccccc2c1C(=O)c1cc(Br)c(O)c(Br)c1` [Compound 1, Benzbromarone, reference compound], for which, in data set [5], the tumor growth entry is given as “able to reduce tumor growth”. Besides, the HUVEC cell proliferation result in the data set with HUVECs [1] is given as “no effect on cell proliferation”. Also, at EYA3-SIX2 interaction, the “EYA3-SIX2 interaction in presence of inhibitor” value is on record as “unaffected”. Besides, the tubulogenesis inhibition entry in the data set with HUVECs [2] (7.5 μM) was “effective at the highest concentrations tested”. Further, the “tube formation on Matrigel” value with HUVECs [2] was “inhibit EYA3 protein in cell migration and tubulogenesis”. Moreover, the HUVEC cell motility entry in the data set with HUVECs [3] was “attenuated HUVEC cell motility”. Further, in data set [4], the “intersegmental vessels in zebrafish embryos” value is given as “significant reduction of intersegmental vessels”. Further, the “formation of neovascular tufts” value in the data set with retinal vasculature is reported as “Significant reduction in the formation of neovascular tufts”.
